# “Also recorded” adds a separate entry of the source.
# Columns and labels:
# [1] = test system: HEK-293 cells transfected with empty pcDNA3.1neo vector; assay: Fluo-3 intracellular Ca2+ assay, control HEK-293 cells with empty pcDNA3.1neo vector; format: cell-based, human; details: HEK-293 empty pcDNA3.1neo vector; 40 nM WS 12 (Figure S1a)
# Description: Following a brief wash with PBS, cells were detached from each T75 flask by soaking with 2 ml Hepes-buffered saline EDTA (10 mM Hepes pH7.4, 155 mM NaCl, 1.7 mM EDTA) for several minutes and were harvested by addition of 10 ml PBS with gentle agitation and transfer to a 25 ml universal. A sample was taken to calculate cell yield using a hemocytometer and the cells were pelleted by centrifugation at 1500 rpm for 4 min. The pellet was resuspended in isotonic buffer (145 mM NaCl, 5 mM KCl, 1 mM MgCl2, 1 mM CaCl2, 10 mM Hepes pH7.4, 10 mM glucose, a variable content of probenecid (0, 0.13, 0.26, 0.52, 1.0, 2.0 or 2.5 mM) or 0.18 mM sulfinpyrazone, with optional 10 mg/ml BSA (all from Sigma-Aldrich) at a density of 5×10^6/ml and mixed with 2.5 or 5.0 μl Fluo-3AM (Invitrogen) from a 2.5 μg/μl stock solution prepared in (DMSO, Sigma-Aldrich). Cells were incubated in a 25 ml universal in the dark at room temperature with gentle rotary mixing (50 rpm) for 30–45 min and then washed by addition of 18 ml PBS followed by centrifugation and resuspension in isotonic buffer without BSA at 5×10^6 cells/ml. […] Real-time fluorescence intensity measurements were collected and data were exported to Microsoft Excel for analysis. […]
# [2] = biological target: T1, TRPA1-(His)10 (Homo sapiens, UniProt O75762); assay: Fluo-3 intracellular Ca2+ assay, HEK-293 cells expressing TRPA1-(His)10; format: cell-based; details: HEK-293 TRPA1-(His)10; mean ±standard deviation, n=4; read-out: EC50 cinnamaldehyde
# T1 construct: expressed in transfected cells
# Text: (§1) Human TRPA1 cDNA in pcDNA3.1neo [41] was mutated to create SNP variants using quick change PCR with appropriate primer pairs: R797T forward 5′ […] TT and reverse 5′ […], S804N forward 5′ […] ATGTTC and reverse 5′ […]. Likewise, the experimental mutant S873E, in ICL-2 (intracellular loop-2), was created using PCR primers: forward 5′ […] […] and reverse 5′ […]. For C-terminal extension, TRPA1cDNA was modified by excision of the 3′ section of the coding region (BamHI–XbaI digestion) and replacement with a BamHI–XbaI digested PCR amplified section containing codons for ten histidine residues (His)10 prior to the translation stop codon using T4 DNA ligase (Promega). PCR primers were: sense 5′ TTTAC […] CATT 3′ and antisense 5′ […] […] TGCCTT 3′. […]
# (§2) Aliquots of cell suspension (usually 100 μl) were used for measurement of intracellular Ca^2+ transients using a PTI (Photon Technology International) 814 photomultiplier detection system interfaced with a desktop computer (PTI Inc.). […] The cuvette was illuminated using light at a wavelength of 506 nm (slit width 8 nm) and monitored using fluorescence detection at 526 nm (slit width 8 nm) coupled to FeliX GX software (PTI Inc). […] Real-time fluorescence intensity measurements were collected and data were exported to Microsoft Excel for analysis. […]
# [3] = biological target: T2, TRPA1 797T (Homo sapiens, UniProt O75762, R797T); assay: Fluo-3 intracellular Ca2+ assay, HEK-293 cells expressing TRPA1 797T SNP variant; format: cell-based; details: HEK-293 TRPA1 797T; mean ±standard deviation, n=4; read-out: EC50 cinnamaldehyde
# T2 construct: expressed in transfected cells
# Text: as §1, §2
# [4] = biological target: T3, TRPA1 797R (Homo sapiens, UniProt O75762); assay: Fluo-3 intracellular Ca2+ assay, HEK-293 cells expressing TRPA1 797R (reference sequence); format: cell-based
# T3 construct: expressed in transfected cells
# Description: When cells reached approximately 80% confluence they were harvested for assays measuring Ca^2+ transients in response to TRP channel activation. Following a brief wash with PBS, cells were detached from each T75 flask by soaking with 2 ml Hepes-buffered saline EDTA (10 mM Hepes pH7.4, 155 mM NaCl, 1.7 mM EDTA) for several minutes and were harvested by addition of 10 ml PBS with gentle agitation and transfer to a 25 ml universal. A sample was taken to calculate cell yield using a hemocytometer and the cells were pelleted by centrifugation at 1500 rpm for 4 min. […]
# [5] = biological target: T4, TRPA1 804N (Homo sapiens, UniProt O75762, S804N); assay: Fluo-3 intracellular Ca2+ assay, HEK-293 cells expressing TRPA1 804N SNP variant; format: cell-based; details: HEK-293 TRPA1 804N; mean ±standard deviation, n=4; read-out: EC50 cinnamaldehyde
# T4 construct: expressed in transfected cells
# Text: as §1, §2
# [6] = biological target: T5, SH-SY5Y TRPA1 R797T (Homo sapiens, UniProt O75762, R797T); assay: Fluo-3 intracellular Ca2+ assay, TRPA1-transfected SH-SY5Y cells that lost response to agonist; format: cell-based; details: pre-treatment followed by AITC
# T5 construct: expressed in transfected cells
# Description: (§3) When cells reached approximately 80% confluence they were harvested for assays measuring Ca^2+ transients in response to TRP channel activation. […] A sample was taken to calculate cell yield using a hemocytometer and the cells were pelleted by centrifugation at 1500 rpm for 4 min.
# Cell suspension for assay was added to 1.9 ml isotonic assay buffer (no BSA) in a 10×10×45 mm polystyrene cuvette (Sarstedt Ltd) containing a small magnetic flea for continuous stirring (~50 rpm), to bring the final volume to 2 ml, and placed within the photomultipler light box. […] Slit apertures were adjusted to enable maximum sensitivity while maintaining low noise. TRP channel agonist was administered by injection into the cuvette using a 1–20 μl pipette fitted with a narrow, extended-reach disposable tip. […] Real-time fluorescence intensity measurements were collected and data were exported to Microsoft Excel for analysis. […]
# (§4) Data from the measurement of Ca^2+ transients (each treatment including a 2 μM A23187 Ca^2+ ionophore control) were used to generate fluorescence intensity traces in Microsoft Excel. RFU (relative fluorescence unit) values for baseline and agonist-induced peak Ca^2+ fluo-3-fluorescence were determined by the manual analysis of graphs. Agonist dose-dependent changes in peak RFU were expressed as ΔRFU relative to baseline and relative to maximum RFU elicited by A23187. […]
# [7] = biological target: T6, TRPM8 FK 1045,1046 AG (Homo sapiens, UniProt Q7Z2W7, F1045A/K1046G); assay: Fluo-3 intracellular Ca2+ assay, SH-SY5Y cells expressing TRPM8 FK 1045,1046 AG mutant; format: cell-based
# T6 construct: expressed in transfected cells
# Text: (§5) Human TRPM8 cDNA was cloned by RT–PCR from human prostate cancer cell line LNCaP (from the American Type Culture Collection) by ligation into pcDNA3.1neo and its DNA sequence validated (L.R. Sadofsky, unpublished work). Normal TRPM8 cDNA was mutated using synthetic oligonucleotides (from Eurofins, MWG, Operon) to amplify full-length plasmid DNA with Pfu DNA polymerase (Thermo Scientific). Amplified DNA was used to transform competent Esherichia coli (Agilent) and individual plasmid clones were screened by diagnostic restriction enzyme digestion-agarose gel electrophoresis. […]
# (§6) Cell suspension for assay was added to 1.9 ml isotonic assay buffer (no BSA) in a 10×10×45 mm polystyrene cuvette (Sarstedt Ltd) containing a small magnetic flea for continuous stirring (~50 rpm), to bring the final volume to 2 ml, and placed within the photomultipler light box. […] Real-time fluorescence intensity measurements were collected and data were exported to Microsoft Excel for analysis. […]
# as §4, with “graphs.” for “graphs. Agonist dose-dependent changes in peak RFU were expressed as ΔRFU relative to baseline and relative to maximum RFU elicited by A23187.”
# [8] = biological target: T6, TRPM8 FK 1045,1046 AG; assay: Fluo-3 intracellular Ca2+ assay, HEK-293 cells expressing TRPM8 FK 1045,1046 AG mutant; format: cell-based; details: HEK293 TRPM8 FK / AG; mean±S.E.M., n=3; read-out: EC50 for WS 12 (peak intracellular Ca2+ fluorescence)
# Text: as §5, §6
# as §4, with “graphs.” for “graphs. Agonist dose-dependent changes in peak RFU were expressed as ΔRFU relative to baseline and relative to maximum RFU elicited by A23187.”
# [9] = biological target: T7, TRPM8 SV 762,763 EL (Homo sapiens, UniProt Q7Z2W7, S762E/V763L); assay: Fluo-3 intracellular Ca2+ assay, HEK-293 cells expressing TRPM8 SV 762,763 EL mutant; format: cell-based; details: HEK293 TRPM8 SV / EL; mean±S.E.M., n=3; read-out: EC50 for WS 12 (peak intracellular Ca2+ fluorescence)
# T7 construct: expressed in transfected cells
# Text: as §5, §6
# as §4, with “graphs.” for “graphs. Agonist dose-dependent changes in peak RFU were expressed as ΔRFU relative to baseline and relative to maximum RFU elicited by A23187.”
# [10] = biological target: T8, human TRPM8 (Homo sapiens, UniProt Q7Z2W7); assay: Fluo-3 intracellular Ca2+ assay, HEK-293 cells expressing normal human TRPM8; format: cell-based
# T8 construct: expressed in transfected cells
# Description: as §3
# Cell suspension for assay was added to 1.9 ml isotonic assay buffer (no BSA) in a 10×10×45 mm polystyrene cuvette (Sarstedt Ltd) containing a small magnetic flea for continuous stirring (~50 rpm), to bring the final volume to 2 ml, and placed within the photomultipler light box. […] Slit apertures were adjusted to enable maximum sensitivity while maintaining low noise. TRP channel agonist was administered by injection into the cuvette using a 1–20 μl pipette fitted with a narrow, extended-reach disposable tip. Antagonists were pre-added to cuvettes where appropriate. Real-time fluorescence intensity measurements were collected and data were exported to Microsoft Excel for analysis. Experimental treatments were performed in triplicate on three separate occasions to facilitate statistical analyses of reproducibility.
# Data from the measurement of Ca^2+ transients (each treatment including a 2 μM A23187 Ca^2+ ionophore control) were used to generate fluorescence intensity traces in Microsoft Excel. RFU (relative fluorescence unit) values for baseline and agonist-induced peak Ca^2+ fluo-3-fluorescence were determined by the manual analysis of graphs. Agonist dose-dependent changes in peak RFU were expressed as ΔRFU relative to baseline and relative to maximum RFU elicited by A23187. […] This enabled estimation of excitatory concentration EC50 for agonists and inhibitory concentration IC50 values where pre-incubation with antagonist was employed. Comparisons between data generated in triplicate within individual experiments and between experiments performed on […] were analysed using Student's t test and one-way ANOVA with post-hoc analysis of group means using Tukey's multiple comparison test.
# T6 sequence (Q7Z2W7 whole entry F1045A/K1046G): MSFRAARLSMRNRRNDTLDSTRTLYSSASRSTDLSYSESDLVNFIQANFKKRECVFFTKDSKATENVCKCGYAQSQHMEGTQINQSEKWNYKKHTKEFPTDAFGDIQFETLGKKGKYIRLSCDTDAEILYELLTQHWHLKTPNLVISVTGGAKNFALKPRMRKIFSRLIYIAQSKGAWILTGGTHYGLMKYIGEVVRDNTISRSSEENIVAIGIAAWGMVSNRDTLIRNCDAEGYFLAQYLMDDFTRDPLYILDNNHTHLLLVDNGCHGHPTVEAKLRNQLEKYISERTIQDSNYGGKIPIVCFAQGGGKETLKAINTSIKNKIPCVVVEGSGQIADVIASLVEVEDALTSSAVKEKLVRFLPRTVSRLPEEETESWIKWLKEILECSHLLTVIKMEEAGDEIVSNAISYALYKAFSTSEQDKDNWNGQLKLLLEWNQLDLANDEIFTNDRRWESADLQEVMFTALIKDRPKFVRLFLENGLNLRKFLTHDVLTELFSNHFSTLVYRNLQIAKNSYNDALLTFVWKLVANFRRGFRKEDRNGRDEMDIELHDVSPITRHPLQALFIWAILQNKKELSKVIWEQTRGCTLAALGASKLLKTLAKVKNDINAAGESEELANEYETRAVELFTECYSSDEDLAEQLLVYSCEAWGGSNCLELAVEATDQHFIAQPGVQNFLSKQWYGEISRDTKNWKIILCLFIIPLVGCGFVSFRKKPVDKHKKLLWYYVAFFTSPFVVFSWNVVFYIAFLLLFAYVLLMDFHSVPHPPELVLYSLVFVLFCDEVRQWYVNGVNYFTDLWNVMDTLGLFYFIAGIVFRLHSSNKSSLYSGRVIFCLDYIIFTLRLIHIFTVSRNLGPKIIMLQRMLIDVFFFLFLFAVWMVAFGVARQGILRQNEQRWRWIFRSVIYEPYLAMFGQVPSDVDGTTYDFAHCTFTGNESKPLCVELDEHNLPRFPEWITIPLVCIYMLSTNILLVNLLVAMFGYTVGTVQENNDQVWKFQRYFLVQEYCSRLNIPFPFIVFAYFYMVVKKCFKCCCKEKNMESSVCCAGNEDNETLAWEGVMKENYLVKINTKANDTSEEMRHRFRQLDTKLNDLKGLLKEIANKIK
# T8 sequence (Q7Z2W7 whole entry): as the sequence (Q7Z2W7 whole entry F1045A/K1046G) above, with A1045F, G1046K counted along it
# T3 sequence (O75762 whole entry): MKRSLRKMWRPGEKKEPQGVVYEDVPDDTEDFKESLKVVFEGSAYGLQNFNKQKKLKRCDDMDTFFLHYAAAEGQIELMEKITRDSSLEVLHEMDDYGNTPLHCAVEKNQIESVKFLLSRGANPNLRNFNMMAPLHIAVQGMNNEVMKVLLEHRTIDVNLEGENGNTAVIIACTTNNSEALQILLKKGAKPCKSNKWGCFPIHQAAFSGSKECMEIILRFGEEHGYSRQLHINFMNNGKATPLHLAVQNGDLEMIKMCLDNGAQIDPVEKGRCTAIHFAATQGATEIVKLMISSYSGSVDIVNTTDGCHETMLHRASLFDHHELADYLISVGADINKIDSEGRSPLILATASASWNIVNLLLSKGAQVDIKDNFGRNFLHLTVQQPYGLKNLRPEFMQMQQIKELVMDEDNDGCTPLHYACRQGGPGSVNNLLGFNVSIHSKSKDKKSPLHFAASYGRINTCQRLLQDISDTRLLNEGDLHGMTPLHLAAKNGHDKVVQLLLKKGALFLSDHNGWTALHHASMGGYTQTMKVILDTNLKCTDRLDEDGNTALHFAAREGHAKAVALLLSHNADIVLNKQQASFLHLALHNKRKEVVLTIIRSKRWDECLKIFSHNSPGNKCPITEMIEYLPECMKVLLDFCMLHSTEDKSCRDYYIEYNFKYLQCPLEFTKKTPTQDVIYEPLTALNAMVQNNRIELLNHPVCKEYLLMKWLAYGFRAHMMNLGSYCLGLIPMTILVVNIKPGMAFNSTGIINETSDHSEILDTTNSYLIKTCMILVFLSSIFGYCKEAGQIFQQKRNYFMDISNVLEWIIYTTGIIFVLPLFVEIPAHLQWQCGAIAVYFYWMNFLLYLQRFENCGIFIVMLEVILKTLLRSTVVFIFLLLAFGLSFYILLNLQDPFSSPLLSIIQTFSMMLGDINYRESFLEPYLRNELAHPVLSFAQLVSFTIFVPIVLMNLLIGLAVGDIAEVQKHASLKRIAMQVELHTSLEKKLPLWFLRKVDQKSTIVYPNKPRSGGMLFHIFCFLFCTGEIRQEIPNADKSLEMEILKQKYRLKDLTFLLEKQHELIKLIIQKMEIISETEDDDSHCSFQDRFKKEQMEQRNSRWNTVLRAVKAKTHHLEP
# T7 sequence (Q7Z2W7 whole entry S762E/V763L): as the sequence (Q7Z2W7 whole entry F1045A/K1046G) above, with S762E, V763L, A1045F, G1046K counted along it
# T1 sequence (O75762 with tags, fused parts or gaps limits assumed): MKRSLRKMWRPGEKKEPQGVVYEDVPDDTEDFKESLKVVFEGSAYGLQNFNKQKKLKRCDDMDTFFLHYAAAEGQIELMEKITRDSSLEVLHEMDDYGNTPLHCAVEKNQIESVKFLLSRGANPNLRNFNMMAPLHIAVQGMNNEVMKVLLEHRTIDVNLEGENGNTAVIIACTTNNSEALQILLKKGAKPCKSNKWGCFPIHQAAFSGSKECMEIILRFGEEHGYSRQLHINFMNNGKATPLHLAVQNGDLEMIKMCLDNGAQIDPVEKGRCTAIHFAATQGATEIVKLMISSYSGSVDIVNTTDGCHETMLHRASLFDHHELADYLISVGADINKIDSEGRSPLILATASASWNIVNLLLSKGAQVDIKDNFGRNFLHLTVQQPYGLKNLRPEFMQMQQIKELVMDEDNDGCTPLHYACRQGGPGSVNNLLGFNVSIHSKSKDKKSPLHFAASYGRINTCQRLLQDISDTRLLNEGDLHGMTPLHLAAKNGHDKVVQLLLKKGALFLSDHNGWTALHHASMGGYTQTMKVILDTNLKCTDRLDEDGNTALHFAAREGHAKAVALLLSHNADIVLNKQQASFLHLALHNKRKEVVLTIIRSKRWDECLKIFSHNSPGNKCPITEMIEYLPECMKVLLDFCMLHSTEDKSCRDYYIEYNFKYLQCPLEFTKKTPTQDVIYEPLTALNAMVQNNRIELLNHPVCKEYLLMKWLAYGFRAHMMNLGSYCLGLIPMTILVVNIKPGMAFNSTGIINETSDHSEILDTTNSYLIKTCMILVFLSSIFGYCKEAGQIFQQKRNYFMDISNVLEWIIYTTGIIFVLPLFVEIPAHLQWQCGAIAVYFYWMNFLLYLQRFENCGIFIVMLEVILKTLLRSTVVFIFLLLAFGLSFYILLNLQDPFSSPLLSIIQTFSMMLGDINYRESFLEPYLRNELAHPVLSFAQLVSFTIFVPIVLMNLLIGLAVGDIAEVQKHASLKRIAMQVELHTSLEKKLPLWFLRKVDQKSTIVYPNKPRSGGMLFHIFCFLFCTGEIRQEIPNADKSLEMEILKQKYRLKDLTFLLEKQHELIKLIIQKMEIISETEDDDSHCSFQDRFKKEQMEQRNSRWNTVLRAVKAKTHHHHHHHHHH
# T2 sequence (O75762 whole entry R797T): as the sequence (O75762 whole entry) above, with R797T counted along it
# T5 sequence (O75762 whole entry R797T): as the sequence (O75762 whole entry) above, with R797T counted along it
# T4 sequence (O75762 whole entry S804N): as the sequence (O75762 whole entry) above, with S804N counted along it
smiles,measurement,setting,value
CC1CCC(C(C)C)C(O)C1 (stereo not drawn) [menthol],Intracellular Ca2+ transients in empty-vector control cells,[1],did not exhibit intracellular Ca^2+ transients
O=C/C=C/c1ccccc1 [cinnamaldehyde],EC50,[2],8 ± 2 µM
same,EC50,[3],3 ± 1 µM
same,EC50,[4],15 ± 5 µM
same,EC50,[5],11 ± 3 µM
"Nc1ncnc2c1cnn2-c1ccccc1 [PP3, 4-amino-7-phenylpyrazol[3,4-d]pyrimidine]",Recovery of responses to TRPA1 agonists after pre-treatment,[6],did not facilitate recovery
same,Effect of pre-treatment on responses to TRPM8 agonist,[7]; 150 nM WS 12,did not affect responses; also recorded: did not inhibit responses
"COc1ccc(NC(=O)[C@@H]2CC(C)CC[C@H]2C(C)C)cc1 (stereo partly drawn) [WS 12, (1R,2S)-N-(4-methoxyphenyl)-5-methyl-2-(1-methylethyl)cyclohexanecarbo-xamide]",EC50,[8],0.194 ± 0.05 µM
same,EC50,[9],0.178 ± 0.022 µM
same,Intracellular Ca2+ transients in empty-vector control cells,[1],did not exhibit intracellular Ca^2+ transients
same,EC50,"[10]; HEK293 TRPM8, mean±S.E.M., n=3, read-out: EC50 for WS 12 (peak intracellular Ca2+ fluorescence)",0.128 ± 0.022 µM
same,EC50,"[7]; mean±S.E.M., n=3, read-out: EC50 for WS 12 (peak intracellular Ca2+ fluorescence)",0.187 ± 0.037 µM
CCCN(CCC)S(=O)(=O)c1ccc(C(=O)O)cc1 [probenecid],Effect of probenecid on TRPA1-induced intracellular Ca2+ response,"[4]; probenecid above 1 mM, up to 2.5 mM, 60 μM cinnamaldehyde",suppressed; also recorded: inhibited
same,Effect of low probenecid concentration on Ca2+ assay results,"[10]; 0.13 mM probenecid, relative to data derived using sulfinpyrazone, TRPM8 and TRPA1 assays",did not affect
same,Effect of probenecid on TRPM8-induced intracellular Ca2+ response,"[10]; probenecid above 1 mM, up to 2.5 mM, 40 nM WS 12",inhibited; also recorded: suppressed the response to WS 12

# — PMC4122973 (Bioscience Reports, 2014)
